US20050288238A1, “Benzocyclodecane derivatives with antitumor activity” (Pfizer Inc, priority 2004, published 2005)

Target: T1, Pig brain tubulin (Sus scrofa, UniProt P02550+P02554)
T1 construct: Pig brain tubulin was prepared by two cycles of assembly and disassembly; from tissue; host or cells: pig brain
Assay: Microtubule assembly and disassembly assay
Type: biochemical
Details: 0.5 mg/ml tubulin, 1 mM GTP, turbidity at 340 nm, reassembly after CaCl2 (5 mM)
Experimental: Microtubule assembly and disassembly assay.
Pig brain tubulin was prepared by two cycles of assembly and disassembly and it was stored in liquid nitrogen in Microtubule Assembly Buffer (MAB: 0.1 M MES, 2.5 mM EGTA, 0.5 mM MgSO4, 0.1 mM EDTA, 0.1 mM DTT pH 6.4). Assembly was monitored by the method of Gaskin et al. (Gaskin F, Cantor C R, Shelanski M L, 1974,: Turbidimetric studies of the in vitro assembly and disassembly of porcine neurotubules. J. Mol. Biol. 89: 737-758). The cuvette (1 cm path) containing 0.5 mg/ml tubulin and 1 mM GTP was shifted to 37° C. and continuous turbidity measurements were made at 340 nm on a spectrophotometer equipped with an automatic recorder and a thermostatically regulated sample chamber. After 30 min CaCl2 (5 mM) was added and disassembly was monitored for 10 min as decreased turbidity. Scalar doses of test compounds were monitored at regular intervals of 15 min.
(ED90) was calculated on this curve.

T1 sequence (P02550 whole entry): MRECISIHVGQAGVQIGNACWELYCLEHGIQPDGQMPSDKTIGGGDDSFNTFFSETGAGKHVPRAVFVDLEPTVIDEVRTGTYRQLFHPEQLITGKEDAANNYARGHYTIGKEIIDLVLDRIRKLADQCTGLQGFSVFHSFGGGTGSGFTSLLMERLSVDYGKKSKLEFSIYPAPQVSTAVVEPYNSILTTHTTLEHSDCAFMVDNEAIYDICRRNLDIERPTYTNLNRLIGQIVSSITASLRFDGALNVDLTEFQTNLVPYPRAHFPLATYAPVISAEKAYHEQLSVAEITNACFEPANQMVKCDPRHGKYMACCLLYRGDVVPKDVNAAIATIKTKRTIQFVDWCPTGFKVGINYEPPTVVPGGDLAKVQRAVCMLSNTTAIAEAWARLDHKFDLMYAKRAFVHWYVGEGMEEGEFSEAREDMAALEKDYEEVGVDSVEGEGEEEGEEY
T1 sequence (P02554 whole entry): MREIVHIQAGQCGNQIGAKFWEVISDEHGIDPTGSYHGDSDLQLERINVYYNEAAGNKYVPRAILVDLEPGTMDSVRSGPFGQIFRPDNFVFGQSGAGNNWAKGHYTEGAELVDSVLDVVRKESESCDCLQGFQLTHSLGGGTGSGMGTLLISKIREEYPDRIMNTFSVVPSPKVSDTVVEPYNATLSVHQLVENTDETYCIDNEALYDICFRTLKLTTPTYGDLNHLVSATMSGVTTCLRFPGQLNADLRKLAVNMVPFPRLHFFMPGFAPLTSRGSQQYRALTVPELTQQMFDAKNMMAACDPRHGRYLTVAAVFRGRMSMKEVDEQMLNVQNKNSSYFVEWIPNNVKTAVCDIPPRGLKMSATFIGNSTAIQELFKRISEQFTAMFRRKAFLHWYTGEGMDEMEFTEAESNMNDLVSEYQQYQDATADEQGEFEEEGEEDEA

Structure (SMILES): CC(=O)OC1C/C=C\CC(OC(=O)/C=C/c2cn(C)cn2)Cc2ccccc2C1 (stereo not shown) [I^v a, 11-(Acetyloxy)-5,6,7,10,11,12-hexahydrobenzo[a][10]annulen-6-yl (2E)-3-(1-methyl-1H-imidazol-4-yl)prop-2-enoate]
- ED90 (dose effecting tubulin assembly by 90% at 37° C.): 10 µM
